Assay results reported in patent US20210369662A1, “FAT ACCUMULATION INHIBITOR AND BLOOD LIPID LEVEL IMPROVING AGENT” (ASAHI GROUP HOLDINGS, LTD., priority 2018, published 2021).

Experiments:
[1] = system: cholesterol transporter (NPC1L1); experiment: Gene expression level of cholesterol transporter in jejunal epithelial tissue (real-time PCR); assay type: in vivo, mice; details: 0.1% 10-HOA in high-fat diet, 15 weeks, mRNA relative to control group, internal standard 36b4 (FIG. 8)
Experimental: (§1) The animal experiment was approved by the Animal Experiment Committee of Asahi Group Holdings, Ltd. (Mar. 9, 2017), and was conducted in accordance with the guidelines for the management and use of laboratory animals of the company's R&D center (implementation period: Apr. 3, 2017 to Jan. 10, 2018). Four-week-old C57BL/6N male mice (Japan SLC, Inc.) were purchased and used for the experiment. The mice were raised in the following environment: room temperature: 23±1.5° C., humidity: 55±15%, lighting time: 8:00 to 20:00.
High-fat diet containing 45 kcal % fat (Research Diets, Inc., D12451) was used to prepare feed with or without 0.1% 10-HOA. […]
After fasting for 16 hours from the day before dissection, the amount of abdominal visceral fat, subcutaneous fat, and total fat (sum of the amount of visceral fat and subcutaneous fat) were measured by a CT scanner (Latheta LCT-100; Hitachi Aloka Medical, Ltd.), under anesthesia by isoflurane inhalation. […]
The triglyceride concentration in the plasma was measured using a Triglyceride E test. The amount of cholesterol in the plasma was measured using a conventional method (G. Toshima et al., LipoSEARCH (registered trademark); Analytical GP-HPLC method for lipoprotein profiling and its applications, J. Biol. Macromol., 13 (2), 21-32 (2013)) at Skylight Biotech Inc,. […] The mRNA expression level was expressed as a relative value to the control group.

[2] = system: C57BL/6N male mice on high-fat diet; experiment: Plasma lipids and apolipoprotein A-I in high-fat diet mice; assay type: in vivo; details: 0.1% 10-HOA in high-fat diet, 15 weeks
Experimental: as §1
(§2) High-fat diet containing 45 kcal % fat (Research Diets, Inc., D12451) was used to prepare feed with or without 0.1% 10-HOA. The four-week-old mice were acclimated to the high-fat diet for 2 weeks, then divided into two groups: (1) high-fat diet control group and (2) 0.1% 10-HOA-containing high-fat diet group, with 10 mice per group, and were administered the diet for 15 weeks. Feed and drinking water (tap water) were given freely by individual housing.
(§3) After fasting for 16 hours from the day before dissection, the amount of abdominal visceral fat, subcutaneous fat, and total fat (sum of the amount of visceral fat and subcutaneous fat) were measured by a CT scanner (Latheta LCT-100; Hitachi Aloka Medical, Ltd.), under anesthesia by isoflurane inhalation. Then, the abdomen was opened under anesthesia, and blood was collected from the abdominal vena cava. Visceral fat (perirenal fat, and retroperitoneal fat) and jejunal epithelial tissue were collected to measure the weight of adipose tissue. The above test was repeated three times, and an analysis was performed by a two-way analysis of variance (factor 1: test group, factor 2: number of animal experiments) (n=10×3/group).
The triglyceride concentration in the plasma was measured using a Triglyceride E test. The amount of cholesterol in the plasma was measured using a conventional method (G. Toshima et al., LipoSEARCH (registered trademark); Analytical GP-HPLC method for lipoprotein profiling and its applications, J. Biol. Macromol., 13 (2), 21-32 (2013)) at Skylight Biotech Inc,. Mouse Apolipoprotein A-I ELISAPRO kit (MABTECH) was used for the measurement of apolipoprotein A-I in the plasma. The jejunal epithelial tissue was collected by QIAzol Lysis Reagent (QIAGEN), and total RNA was extracted according to the product protocol of RNeasy Mini Kit (QIAGEN). Total RNA was reverse transcribed by M-MLV Reverse Transcriptase (Life Technologies Japan Ltd.) to prepare cDNA. To measure the mRNA expression level, real-time PCR by the intercalator method was performed using Light Cycler System (Roche Diagnostics K.K.). […] The mRNA expression level was expressed as a relative value to the control group.

[3] = system: C57BL/6N male mice on high-fat diet; experiment: Fat accumulation in high-fat diet mice (CT scan and adipose tissue weight); assay type: in vivo; details: 15 weeks
Experimental: as §1, §2, §3

[4] = 0.1% 10-HOA in high-fat diet (45 kcal % fat), adipose tissue weight, n=10x3/group

## CCCCCCCCC(O)CCCCCCCCC(=O)O (stereo not shown) [10-HOA, 10-hydroxyoctadecanoic acid]
[1]
  gene expression level of the cholesterol transporter (NPC1L1) in jejunal epithelial tissue: decrease
[2]; 16 h fasting, compared to control (FIG. 4)
  triglyceride concentration in plasma: decreasing tendency
[2]; ELISA, compared to control (FIG. 6)
  Apolipoprotein A-I in plasma: increasing tendency
[2]; compared to control (FIG. 5)
  small HDL cholesterol in plasma: significantly increased
[2]; compared to control (FIG. 7)
  chylomicron cholesterol in plasma: significant decrease
[3]; [4]
  Fat on the posterior abdominal wall: 0.6805 ± 0.0206 g
  Perirenal fat: 0.4924 ± 0.0130 g
[3]; 0.1% 10-HOA in high-fat diet, compared to control (Table 1)
  weights of perirenal fat and retroperitoneal fat: reduced
[3]; CT scanner, 0.1% 10-HOA in high-fat diet, compared to control group (FIG. 1)
  amount of abdominal visceral fat: significantly reduced
[3]; CT scanner, sum of visceral and subcutaneous fat, 0.1% 10-HOA in high-fat diet, compared to control (FIG. 3)
  total amount of fat: decreasing tendency
